Laboratory results: PubChem BioAssay AID2060495 (Molecular Pharmacology Branch, DTP, NCI, 2025)

System: 521955-158-R2-J5-PDC complex spheroid viability
Experiment: Anticancer human tumor 521955-158-R2-J5-PDC patient-derived pancreatic carcinoma cell line growth inhibition [GQUAD]
Settings: for IC50: curve of first compound; for viability, T/C: stronger effect = lower value
How it was run: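 Viability of tumor cells grown as complex spheroids with endothelial and stromal cells, exposed to drug combinations. Top concentration at or near clinical Cmax (else 10 microM), diluted in half-log increments.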

[1] = second compound 0.0316 µM, first compound 0.0316 µM
[2] = second compound 0.0316 µM, first compound 0.1 µM
[3] = second compound 0.0316 µM, first compound 0.316 µM
[4] = second compound 0.0316 µM, first compound 1 µM
[5] = second compound 0.0316 µM, first compound 3.16 µM
[6] = second compound 0.0316 µM, first compound 10 µM
[7] = second compound 0.1 µM, first compound 0.0316 µM
[8] = second compound 0.1 µM, first compound 0.1 µM
[9] = second compound 0.1 µM, first compound 0.316 µM
[10] = second compound 0.1 µM, first compound 1 µM
[11] = second compound 0.1 µM, first compound 3.16 µM
[12] = second compound 0.1 µM, first compound 10 µM
[13] = second compound 0.316 µM, first compound 0.0316 µM
[14] = second compound 0.316 µM, first compound 0.1 µM
[15] = second compound 0.316 µM, first compound 0.316 µM
[16] = second compound 0.316 µM, first compound 1 µM
[17] = second compound 0.316 µM, first compound 3.16 µM
[18] = second compound 0.316 µM, first compound 10 µM
[19] = second compound 1 µM, first compound 0.0316 µM
[20] = second compound 1 µM, first compound 0.1 µM
[21] = second compound 1 µM, first compound 0.316 µM
[22] = second compound 1 µM, first compound 1 µM
[23] = second compound 1 µM, first compound 3.16 µM
[24] = second compound 1 µM, first compound 10 µM
[25] = second compound 3.16 µM, first compound 0.0316 µM
[26] = second compound 3.16 µM, first compound 0.1 µM
[27] = second compound 3.16 µM, first compound 0.316 µM
[28] = second compound 3.16 µM, first compound 1 µM
[29] = second compound 3.16 µM, first compound 3.16 µM
[30] = second compound 3.16 µM, first compound 10 µM
[31] = second compound 10 µM, first compound 0.0316 µM
[32] = second compound 10 µM, first compound 0.1 µM
[33] = second compound 10 µM, first compound 0.316 µM
[34] = second compound 10 µM, first compound 1 µM
[35] = second compound 10 µM, first compound 3.16 µM
[36] = second compound 10 µM, first compound 10 µM
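Note: spheroids exposed to agents for one week before reading.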
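Throughout, for viability, T/C: 100% = DMSO vehicle control viability.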

Work on `COc1ncnc(C2CC2)c1-c1ncc2cnn(Cc3ccc(-c4nc(C(F)(F)F)cn4C(C)C)cc3)c2n1` + CN(C)c1ccc(Nc2c3ccc(NC(=O)CCN4CCCC4)cc3nc3cc(NC(=O)CCN4CCCC4)ccc23)cc1 yielded an IC50 (second compound 0.0316 µM) greater than 10000 nM, an IC50 (second compound 0.1 µM) greater than 10000 nM and an IC50 (second compound 0.316 µM) greater than 10000 nM. The IC50 (second compound 1 µM) was greater than 10000 nM, the IC50 (second compound 3.16 µM) was greater than 10000 nM and the IC50 (second compound 10 µM) was 4550 nM. It also gave a viability, T/C [1] of 113%, a viability, T/C [2] of 103% and a viability, T/C [3] of 116%. It also gave a viability, T/C [4] of 114%, a viability, T/C [5] of 135% and a viability, T/C [6] of 140%. The viability, T/C [7] was 97.7%, the viability, T/C [8] was 112% and the viability, T/C [9] was 107%. It also gave a viability, T/C [10] of 112%, a viability, T/C [11] of 148% and a viability, T/C [12] of 122%. For the same molecule, the viability, T/C [13] was 95.4%, the viability, T/C [14] was 123% and the viability, T/C [15] was 118%. The viability, T/C [16] was 121%, the viability, T/C [17] was 115% and the viability, T/C [18] was 117%. For the same molecule, the viability, T/C [19] was 105%, the viability, T/C [20] was 109% and the viability, T/C [21] was 115%. The viability, T/C [22] was 122%, the viability, T/C [23] was 112% and the viability, T/C [24] was 115%. For the same molecule, the viability, T/C [25] was 86%, the viability, T/C [26] was 93% and the viability, T/C [27] was 101%. For the same molecule, the viability, T/C [28] was 111%, the viability, T/C [29] was 114% and the viability, T/C [30] was 82.8%. For the same molecule, the viability, T/C [31] was 74%, the viability, T/C [32] was 74.7% and the viability, T/C [33] was 69.5%. For the same molecule, the viability, T/C [34] was 76.7%, the viability, T/C [35] was 68.1% and the viability, T/C [36] was 10.3%.
With `Cc1[nH]c2ccccc2c1CCNCc1ccc(/C=C/C(=O)NO)cc1` + CN(C)c1ccc(Nc2c3ccc(NC(=O)CCN4CCCC4)cc3nc3cc(NC(=O)CCN4CCCC4)ccc23)cc1 the IC50 (second compound 0.0316 µM) was 168 nM, the IC50 (second compound 0.1 µM) was 117 nM and the IC50 (second compound 0.316 µM) was 156 nM. For the same molecule, the IC50 (second compound 1 µM) was 180 nM, the IC50 (second compound 3.16 µM) was 119 nM and the IC50 (second compound 10 µM) was 67.6 nM. It also gave a viability, T/C (second compound 0.0316 µM, first compound 0.000999 µM) of 132%, a viability, T/C (second compound 0.0316 µM, first compound 0.00316 µM) of 110% and a viability, T/C (second compound 0.0316 µM, first compound 0.00999 µM) of 133%. The viability, T/C [1] was 109%, the viability, T/C (second compound 0.0316 µM, first compound 0.0999 µM) was 72.3% and the viability, T/C [3] was 23.4%. It also gave a viability, T/C (second compound 0.1 µM, first compound 0.000999 µM) of 113%, a viability, T/C (second compound 0.1 µM, first compound 0.00316 µM) of 132% and a viability, T/C (second compound 0.1 µM, first compound 0.00999 µM) of 128%. It also gave a viability, T/C [7] of 121%, a viability, T/C (second compound 0.1 µM, first compound 0.0999 µM) of 54.8% and a viability, T/C [9] of 19.7%. For the same molecule, the viability, T/C (second compound 0.316 µM, first compound 0.000999 µM) was 105%, the viability, T/C (second compound 0.316 µM, first compound 0.00316 µM) was 125% and the viability, T/C (second compound 0.316 µM, first compound 0.00999 µM) was 123%. It also gave a viability, T/C [13] of 90.8%, a viability, T/C (second compound 0.316 µM, first compound 0.0999 µM) of 68.7% and a viability, T/C [15] of 24.4%. It also gave a viability, T/C (second compound 1 µM, first compound 0.000999 µM) of 107%, a viability, T/C (second compound 1 µM, first compound 0.00316 µM) of 114% and a viability, T/C (second compound 1 µM, first compound 0.00999 µM) of 134%. It also gave a viability, T/C [19] of 114%, a viability, T/C (second compound 1 µM, first compound 0.0999 µM) of 82.6% and a viability, T/C [21] of 19%. It also gave a viability, T/C (second compound 3.16 µM, first compound 0.000999 µM) of 91.7%, a viability, T/C (second compound 3.16 µM, first compound 0.00316 µM) of 116% and a viability, T/C (second compound 3.16 µM, first compound 0.00999 µM) of 119%. It also gave a viability, T/C [25] of 97%, a viability, T/C (second compound 3.16 µM, first compound 0.0999 µM) of 56.9% and a viability, T/C [27] of 13.2%. It also gave a viability, T/C (second compound 10 µM, first compound 0.000999 µM) of 70.7%, a viability, T/C (second compound 10 µM, first compound 0.00316 µM) of 103% and a viability, T/C (second compound 10 µM, first compound 0.00999 µM) of 79.3%. It also gave a viability, T/C [31] of 82.6%, a viability, T/C (second compound 10 µM, first compound 0.0999 µM) of 33.3% and a viability, T/C [33] of 3.21%.
`O=C(NO)c1cnc(N2CCN(S(=O)(=O)c3ccc4ccccc4c3)CC2)nc1` + CN(C)c1ccc(Nc2c3ccc(NC(=O)CCN4CCCC4)cc3nc3cc(NC(=O)CCN4CCCC4)ccc23)cc1 showed an IC50 (second compound 0.0316 µM) of 703 nM, an IC50 (second compound 0.1 µM) of 668 nM and an IC50 (second compound 0.316 µM) of 491 nM. It also gave an IC50 (second compound 1 µM) of 550 nM, an IC50 (second compound 3.16 µM) of 734 nM and an IC50 (second compound 10 µM) of 376 nM. It also gave a viability, T/C [1] of 127%, a viability, T/C [2] of 105% and a viability, T/C [3] of 95.3%. For the same molecule, the viability, T/C [4] was 30.6%, the viability, T/C [5] was 0.19% and the viability, T/C [6] was 0.15%. For the same molecule, the viability, T/C [7] was 120%, the viability, T/C [8] was 124% and the viability, T/C [9] was 94.7%. For the same molecule, the viability, T/C [10] was 26%, the viability, T/C [11] was 0.16% and the viability, T/C [12] was 0.1%. For the same molecule, the viability, T/C [13] was 118%, the viability, T/C [14] was 115% and the viability, T/C [15] was 58%. It also gave a viability, T/C [16] of 31.6%, a viability, T/C [17] of 0.13% and a viability, T/C [18] of 0.12%. The viability, T/C [19] was 121%, the viability, T/C [20] was 116% and the viability, T/C [21] was 60.9%. The viability, T/C [22] was 37%, the viability, T/C [23] was 0.15% and the viability, T/C [24] was 0.12%. It also gave a viability, T/C [25] of 109%, a viability, T/C [26] of 142% and a viability, T/C [27] of 87.5%. The viability, T/C [28] was 37.7%, the viability, T/C [29] was 0.28% and the viability, T/C [30] was 0.13%. The viability, T/C [31] was 94%, the viability, T/C [32] was 94.1% and the viability, T/C [33] was 53.7%. For the same molecule, the viability, T/C [34] was 17.1%, the viability, T/C [35] was 0.27% and the viability, T/C [36] was 0.21%.
